Values quoted from earlier work as cited in patent US6100258A, “Aromatic amine compounds that antagonize the pain enhancing effects of prostaglandins” (Zeneca Limited, priority 1995, dated 2000).

SMILES: CC(=O)NNC(=O)N1Cc2ccccc2Oc2ccc(Cl)cc21 [SC-19220]
- block of the effect of PGE2 (dog fundus): blocks the effect of PGE2
- block of the effect of PGE2 (guinea pig ileum): blocks the effect of PGE2
